Earlier results on 2 compounds are cited in patent publication US6303141A, “Transdermally administrable medicament with ACE inhibitors” (Hexal AG, priority 1995, dated 2001).

The conditions of this data set: in vivo.

With `CCOC(=O)[C@H](CCc1ccccc1)N[C@H]1CCc2ccccc2N(CC(=O)O)C1=O` [benazepril], the oral bioavailability is given as 28%.

With `C[C@H](CS)C(=O)N1CCC[C@H]1C(=O)O` [captopril], the oral bioavailability entry is listed as “approximately 70%”.
